≈ marks a conversion by molar mass, not a printed value. Like-named read-outs stand apart in the source and are kept apart here.
Assays:
[1] = Solubility in phosphate buffered saline pH 7.4 at room temperature; assay type: physicochemical; conditions: PBS pH 7.4, room temperature; for solubility: phosphate buffered saline, aqueous buffer, thermodynamic from solid
Procedure: This example describes the solubility of three non-natural amino acids comprising tetrazine functional groups in phosphate buffered saline solution, with a pH of 7.4 (PBS). The example also illustrates and discusses the useful increased solubility of the pyridyl tetrazine amino acids provided herein when compared to a phenyl tetrazine-comprising non-natural amino acid of the art.
A suspension of AB 4091 was formed by adding 1.8 mg of AB 4091 to 5 mL of PBS. The suspension was vortexed for five minutes and sonicated for two minutes. Suspended particles remained. Additional PBS was added to the suspension in small portions, with vortexing, to reach a total volume of 25 mL of PBS. This mixture remained cloudy after shaking overnight at room temperature and turned clear following the addition of 2 mL of PBS with vortexing. Clarity of the solution was determined by visual inspection.
(§1) A solution of compound (9) was formed by adding 8.3 mg of compound (9) to 200 μL of PBS to form a homogeneous solution. An additional 11.5 mg of compound (9) was added to this solution, in small portions, over a period of 20 minutes, with vortexing. The solution remained clear after vortexing, with no particulates or cloudiness observed. The maximum solubility of compound (9) was not reached, due to its high solubility and the limited amount of the compound available.
as §1, with “compound (6)” for “compound (9)”, “adding 8.7” for “adding 8.3”, “a homogenous” for “a homogeneous”, “additional 26.9” for “additional 11.5”, “of 25” for “of 20”

[2] = target: T1, tRNA synthetase 2A2 (Methanocaldococcus jannaschii, UniProt Q57834, D158V/F108W/H70A/I159A/L162V/L65V/Q109S/Y32L); assay: Cell-free GFP (K49TAG) expression assay: incorporation of non-natural amino acid by tRNA synthetase 2A2; assay type: biochemical, Methanococcus jannaschii; conditions: 4 μM 2A2, compound of formula 9 at 4 mM, 30° C., 12 h, ex 476 nm / em 510 nm
T1 construct: made in house
Procedure: (§2) This example provides two novel tRNA synthetases useful with tetrazine-containing amino acids described herein. These two synthetases, designated “2A2” (SEQ ID NO: 4) and “2A9” (SEQ ID NO: 5) were produced by mutagenesis of wild-type tyrosyl-tRNA synthetase (TyrRS) from Methanococcus jannaschii (SEQ ID NO:3). Mutagenesis was performed by assembling overlapping oligonucleotides encoding the mutations by polymerase chain reaction (PCR). Mutants were screened utilizing the green fluorescent protein expression assay described below.
(§3) The ability of the novel tRNA synthetases to incorporate modified amino acids into a polypeptide was evaluated in cell-free protein synthesis reactions comprising DNA encoding SUPERFOLDER green fluorescent protein (GFP). The codon encoding position 49 of the GFP polypeptide, which normally encodes a lysine residue, was substituted with an amber stop codon (TAG). Full-length GFP is expressed only if the novel tRNA synthetases incorporate s modified amino acid into the polypeptide chain. The level of expression of full-length GFP can be evaluated by measuring fluorescence.
(§4) The GFP DNA containing the TAG stop codon was expressed in cell-free protein synthesis reactions as described in Zawada et al., 2011, Biotechnol. Bioeng. […]

[3] = target: T2, tRNA synthetase 2A9 (Methanocaldococcus jannaschii, UniProt Q57834, D158G/H70A/L162S/L65V/Q109S/Y32G); assay: Cell-free GFP (K49TAG) expression assay: incorporation of non-natural amino acid by tRNA synthetase 2A9; assay type: biochemical, Methanococcus jannaschii; conditions: 2-4 μM 2A9, compound of formula 6 at 1 mM, 30° C., 12 h, ex 476 nm / em 510 nm
T2 construct: made in house
Procedure: as §2, §3, §4

[4] = solution remained clear, read-out: final concentration achieved (maximum solubility not reached)

T1 sequence (Q57834 whole entry Y32L/L65V/H70A/F108W/Q109S/D158V/I159A/L162V): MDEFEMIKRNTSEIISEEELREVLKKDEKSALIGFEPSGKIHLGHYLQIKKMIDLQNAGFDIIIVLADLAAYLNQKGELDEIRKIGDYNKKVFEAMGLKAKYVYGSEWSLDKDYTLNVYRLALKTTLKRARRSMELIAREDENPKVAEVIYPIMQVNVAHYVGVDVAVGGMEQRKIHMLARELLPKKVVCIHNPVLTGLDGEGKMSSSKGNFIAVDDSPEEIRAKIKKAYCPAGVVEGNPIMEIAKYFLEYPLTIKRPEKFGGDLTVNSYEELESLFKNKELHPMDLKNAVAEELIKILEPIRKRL
T2 sequence (Q57834 whole entry Y32G/L65V/H70A/Q109S/D158G/L162S): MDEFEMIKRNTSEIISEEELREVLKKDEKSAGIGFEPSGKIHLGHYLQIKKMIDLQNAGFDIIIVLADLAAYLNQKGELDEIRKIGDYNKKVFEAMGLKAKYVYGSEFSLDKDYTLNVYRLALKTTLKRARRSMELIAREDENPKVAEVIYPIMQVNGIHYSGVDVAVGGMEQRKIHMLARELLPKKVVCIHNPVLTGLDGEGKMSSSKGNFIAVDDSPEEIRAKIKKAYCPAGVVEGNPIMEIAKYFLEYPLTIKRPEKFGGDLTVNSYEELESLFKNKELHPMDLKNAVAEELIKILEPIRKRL

SMILES	solubility relative to the solubility of AB 4091 [1]	solubility [1, 4]	GFP fluorescence compared with native GFP positive control [2]	GFP fluorescence compared with native GFP positive control [3]	solubility ([1]; clarity by visual inspection, read-out: solubility)
Cc1nnc(NCc2ccc(C[C@H](N)C(=O)O)nc2)nn1 [compound (9)]	over 1600 fold	≥ 342 mM	approximately equivalent to that of native GFP	–	–
Cc1nnc(Nc2ccc(C[C@H](N)C(=O)O)cn2)nn1 [compound (6)]	over 3000 fold	≥ 647 mM	–	approaches that of native GFP	–
Cc1nnc(Nc2ccc(CC(N)C(=O)O)cc2)nn1 (stereo not shown) [AB 4091, reference compound]	–	–	–	–	~0.215 mM (≈ 0.059 mg/mL)

— patent US9840493B2, “Modified amino acids comprising tetrazine functional groups, methods of preparation, and methods of their use” (SUTRO BIOPHARMA, INC., priority 2013, dated 2017)
